The text below walks through data of US10611765B2, “Pyrrolopyrimidine derivatives as Mps1/TTK kinase inhibitors” (Ohio State Innovation Foundation, priority 2014, dated 2020).

Structures are written as SMILES. pIC50: −log10 of the molar value. Where two headings read alike, the source gives them in different places. A value given as a limit tells only on which side of the number the result lay.

For orientation: pIC50 means −log10 of the IC50, conventionally taken in molar units.

For one assay, the system named is HCC1937. The assay is described as follows: MTS anti-proliferative assay, HCC1937. The following applies: Homo sapiens, 168 h, HCC1937, TNBC, basal, treatment for 7 days. It is filed as cell-based. On the procedure: (§1) The anti-proliferative effects and IC50 values of the compounds in the BC cell line panel were determined by MTS assay.
(§2) The cells, except Sk-Br-3, AU565 and BT-474 were maintained in a mixture of Dulbecco's modified Eagle's medium and Ham's F12 medium (1:1) (DMEM/F12) without phenol red supplemented with 5% fetal bovine serum (FBS) and 1× antibiotic-antimycotic (100 U/mL penicillin G sodium, 100 μg/mL streptomycin sulfate and 0.25 μg/mL amphotericin B) and were plated separately in flasks in a humidified incubator (5% CO2: 95% air, 37° C.). The media used for Sk-Br-3, AU565 and BT-474 cell lines was described in (1) Brueggemeier et al., J. Steroid Biochem. Mol. Biol., 2005; 95:129-136; and (2) Diaz-Cruz et al., J. Clin. Endocrinol. Metab., 2005; 90:2563-2570. The media were changed every 2-days. When the cells grew to about 80% confluence, cells were washed twice with calcium- and magnesium-free phosphate-buffered saline (PBS, pH 7.4), and then trypsinized with 0.05% trypsin-5.3 mm EDTA. The trypsinization was stopped by addition of culture medium with 5% FBS. After centrifugation, the dissociated cells were resuspended in the same medium and subcultured into 75-cm^2 culture flasks at a ratio of 1:5 flasks.
(§3) The BC cells were seeded at the density of 1,000 cells per well (100 μL) into 96 well plate in DMEM/F-12 (1:1), supplemented with 5% (v/v) FCS and incubated overnight at 37° C. Test compounds are solubilized in dimethyl sulfoxide (DMSO), diluted in cell culture medium to a range of final assay concentrations of 1 nM to 10 μM, added to cells and incubated for 7 days at 37° C. The medium including the test compound are refreshed at days 3 and 5. The MTS assay are carried out by using the CellTiter 96® AQueous One Solution Cell Proliferation Assay kit following the manufacturer's instruction.

For a further assay, the system named is MDA-MB-468. In words: MTS anti-proliferative assay, MDA-MB-468. It is filed as cell-based. The following applies: Homo sapiens, 168 h, MDA-MB-468, TNBC, basal B, treatment for 7 days. The method, then:
as §1, §2, §3
A general note: Tetrazolium dyes change colour on reduction, which living cells bring about.

The subject of another assay is BT-20. In words: MTS anti-proliferative assay, BT-20. In kind it is cell-based. The following applies: Homo sapiens, 168 h, BT-20, TNBC, basal A, treatment for 7 days. The method, then:
as §1, §2, §3

The next assay has as its system Hs578T. The assay is described as follows: MTS anti-proliferative assay, Hs578T. It is filed as cell-based. The following applies: Homo sapiens, Hs-578T, 168 h, TNBC, basal B, treatment for 7 days. On the procedure: as §1, §2, §3
The subject of a further assay is MDA-MB-231. The assay is described as follows: MTS anti-proliferative assay, MDA-MB-231. It is filed as cell-based. The following applies: Homo sapiens, 168 h, MDA-MB-231, TNBC, basal B, treatment for 7 days. On the procedure: as §1, §2, §3
The test system of a further assay is MCF-7. In words: MTS anti-proliferative assay, MCF-7. It is filed as cell-based. The following applies: Homo sapiens, MCF7, 168 h, MCF-7, luminal A, treatment for 7 days. The method, then:
as §1, §2, §3

For a further assay, the system named is Sk-Br-3. The assay is described as follows: MTS anti-proliferative assay, Sk-Br-3. It is filed as cell-based. The following applies: Homo sapiens, 168 h, Sk-Br-3, luminal, treatment for 7 days. The method, then:
as §1, §2, §3

The next assay has as its system AU565. In words: MTS anti-proliferative assay, AU565. It is filed as cell-based. Conditions: Homo sapiens, 168 h, AU565, luminal, treatment for 7 days. The method, then:
as §1, §2, §3

The subject of assay [1] is panel of breast cancer cell lines. The assay is described as follows: Anti-proliferative assays, panel of BC cell lines (overall statements). In kind it is cell-based. Conditions: for potency as compared to Mps1-IN-1: in some or all of the cell based assays in the panel. The method, then:
This example describes the development of novel small molecule Mps1/TTK inhibitors as targeted therapies for TNBC and other aggressive BC using drug discovery technologies. Using computational modeling, medicinal chemistry, biochemistry and cell culture assays, the inventors have identified novel small molecules as potential Mps1/TTK inhibitors. The compounds were evaluated in anti-proliferative assays of a panel of 15 BC cell lines and further examined for their ability to inhibit a variety of Mps1-dependent biological functions.
as §1, §2, §3

Assay [2] deals with T1, Mps1/TTK kinase (recombinant GST-Mps1) (Homo sapiens, UniProt P33981).
T1 sequence (P33981 1-857): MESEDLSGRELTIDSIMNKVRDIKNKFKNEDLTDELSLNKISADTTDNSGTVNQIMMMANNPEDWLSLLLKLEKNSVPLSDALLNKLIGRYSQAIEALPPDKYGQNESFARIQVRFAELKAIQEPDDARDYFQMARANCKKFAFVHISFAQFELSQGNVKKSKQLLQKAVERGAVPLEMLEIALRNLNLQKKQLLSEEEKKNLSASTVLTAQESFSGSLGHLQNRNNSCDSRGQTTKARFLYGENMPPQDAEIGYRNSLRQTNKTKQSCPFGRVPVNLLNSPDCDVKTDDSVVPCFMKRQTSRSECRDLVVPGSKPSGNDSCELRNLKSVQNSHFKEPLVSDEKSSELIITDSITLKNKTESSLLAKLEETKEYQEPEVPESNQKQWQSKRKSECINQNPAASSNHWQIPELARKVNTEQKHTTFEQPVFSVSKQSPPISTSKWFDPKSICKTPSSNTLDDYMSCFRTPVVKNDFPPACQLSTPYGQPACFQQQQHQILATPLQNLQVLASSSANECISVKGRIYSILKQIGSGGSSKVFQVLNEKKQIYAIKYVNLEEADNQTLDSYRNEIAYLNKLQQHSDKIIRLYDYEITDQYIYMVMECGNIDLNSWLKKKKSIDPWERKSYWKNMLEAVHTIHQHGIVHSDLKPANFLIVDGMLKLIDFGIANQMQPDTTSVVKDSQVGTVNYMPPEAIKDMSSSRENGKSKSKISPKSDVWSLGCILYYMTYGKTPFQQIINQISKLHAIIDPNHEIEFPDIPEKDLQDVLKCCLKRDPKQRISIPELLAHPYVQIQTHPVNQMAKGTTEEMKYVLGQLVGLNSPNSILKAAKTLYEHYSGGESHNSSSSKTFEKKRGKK
In words: Mps1 in vitro kinase assay with Cetn2 substrate. In kind it is biochemical. The following applies: read-out: IC50, in vitro kinase activity of Mps1. On the procedure: To determine the efficacy of the compounds against Mps1/TTK kinase activity, assays were performed as previously described (11) using recombinant Mps1, Cetn2 (specific substrate), and varying concentration of compound.

For the next assay, the system named is Cal-51 cells. In words: Spindle checkpoint assay, Cal-51. It is filed as cell-based. Conditions: for abrogating the spindle checkpoint: Cal-51, at 1 μM. The method, then:
For spindle checkpoint assays, S-phase arrested cells treated with candidate compounds were released into medium containing the spindle poison nocodazole. Because the spindle checkpoint prevents the metaphase to anaphase transition in the presence of spindle damage, compounds that block the spindle checkpoint will lead to a decreased number of mitotic cells in the presence of nocodazole. Briefly, cells were arrested in S-phase with a 24 hour treatment with 2 mM thymidine. Three hours after removing thymidine to release cells from S-phase arrest, nocodazole was added at 200 ng/mL. After 12 hours in the presence of nocodazole, cells were fixed and stained with mouse anti-cyclin B and Hoechst, and the percentage of cyclin B positive cells with condensed chromosomes was determined in triplicate samples.

The mark [3] stands for this setting: additional investigations (text to Table 2).

In the case of `COc1cc(N2CCC(O)CC2)ccc1Nc1nc(Nc2ccccc2S(=O)(=O)C(C)C)c2cc[nH]c2n1` [Compound 1, 1-(4-((4-((2-(isopropylsulfonyl)phenyl)amino)-7H-pyrrolo[2,3-d]pyrimidin-2-yl)amino)-3-methoxyphenyl)piperidin-4-ol], the pIC50 in the assay with HCC1937 was 6.14; with MDA-MB-468, 6.72; with BT-20, 6.46; with Hs578T, less than 5.00; in the assay with MDA-MB-231, less than 5.00; in the assay on MCF-7, 6.36. The pIC50 is less than 5.00 in the assay on Sk-Br-3, less than 5.00 in the assay with AU565, 6.09 in assay [2] (setting [3]) and 6.81 in assay [2] (preliminary investigations). Also, the “potency as compared to Mps1-IN-1” value in [1] is given as “significantly more potent”. In [1] (preliminary studies of the initial series), the “anti-proliferative effect, selectivity toward TNBC cells” value is “moderate selectivity”. In addition, in the assay on Cal-51 cells, the “abrogating the spindle checkpoint” value is listed as “more effective than IN-1, AZ3146, or compound 5”. Further, the “ability of cells to arrest in response to nocodazole” value with Cal-51 cells (Cal-51, nocodazole 200 ng/mL, 12 hours) is “dose-dependent reduction”.
Turning to `COc1cc(N2CCOCC2)ccc1Nc1nc(NC2CCCCC2)c2cc[nH]c2n1` [Compound 13, N4-cyclohexyl-N2-(2-methoxy-4-morpholinophenyl)-7H-pyrrolo[2,3-d]pyrimidine-2,4-diamine], the pIC50 is 5.96 in the assay on HCC1937; 6.24 with MDA-MB-468; 6.24 with BT-20; less than 5.00 with Hs578T; less than 5.00 in the assay on MDA-MB-231; less than 5.00 with MCF-7. For the same compound, the pIC50 with Sk-Br-3 was 6.11; in the assay on AU565, 6.05; in assay [2] (setting [3]), 6.45; in [2] (preliminary investigations), 7.52. Also, the “potency as compared to Mps1-IN-1” value in assay [1] is “significantly more potent”. Also, the “abrogating the spindle checkpoint” value in the assay with Cal-51 cells is given as “most effective”.
